Activity calls are given as the source filed them. No cut-off for these calls is given here.
Key:
ECa-109 cell line [1] = test: Antiproliferative activity against human EC109 cells after 48 hrs by MTT assay; assay type: functional, cell-based; conditions: ECa-109, 48 h
Mus musculus [2] = test: Acute toxicity in C57BL/6 mouse assessed as histopathological changes in spleen at 2 g/kg, ig measured for 2 weeks by hematoxylin and eosin staining based microscopic method; assay type: organism-based; conditions: in vivo, po, 2000 mg/kg, 336 h
EC9706 [3] = test: Induction of apoptosis in human EC9706 cells assessed as increase in p53 protein expression after 48 hrs by Western blot analysis; assay type: functional, cell-based
ECa-109 cell line [4] = test: Upregulation of p27 protein expression in human EC109 cells at 4 uM after 24 to 48 hrs by Western blot analysis relative to control; assay type: functional
EC9706 [5] = test: Induction of apoptosis in human EC9706 cells assessed as necrotic cells at 2 uM after 48 hrs by Annexin V-FITC/propidium iodide staining based flow cytometry (reference value: 1.1 to 1.31%); assay type: functional
EC9706 [6] = test: Induction of apoptosis in human EC9706 cells assessed as live cells at 8 uM after 48 hrs in presence of caspase inhibitor Z-VAD-FMK by Annexin V-FITC/propidium iodide staining based flow cytometry (reference value: 95.7%); assay type: functional
PC-3 = test: Antiproliferative activity against human PC3 cells after 72 hrs by MTT assay; assay type: functional, cell-based; conditions: PC-3, 72 h
EC9706 [7] = test: Induction of apoptosis in human EC9706 cells assessed as necrotic cells at 4 uM after 48 hrs by Annexin V-FITC/propidium iodide staining based flow cytometry (reference value: 1.1 to 1.31%); assay type: functional
ECa-109 cell line [8] = test: Induction of apoptosis in human EC109 cells assessed as late apoptotic cells at 8 uM after 48 hrs by Annexin V-FITC/propidium iodide staining based flow cytometry (reference value: 0.2 to 1.74%); assay type: functional
ECa-109 cell line [9] = test: Effect on Prxs-4 protein expression in human EC109 cells at 2 to 8 uM after 48 hrs by Western blot analysis; assay type: functional, cell-based
ECa-109 cell line [10] = test: Induction of apoptosis in human EC109 cells assessed as live cells at 8 uM after 48 hrs by Annexin V-FITC/propidium iodide staining based flow cytometry (reference value: 95.2 to 99%); assay type: functional
EC9706 [11] = test: Effect on Prxs-1 protein expression in human EC9706 cells at 2 to 8 uM after 48 hrs by Western blot analysis; assay type: functional, cell-based
ECa-109 cell line [12] = test: Induction of apoptosis in human EC109 cells assessed as live cells at 4 uM after 48 hrs by Annexin V-FITC/propidium iodide staining based flow cytometry (reference value: 95.2 to 99%); assay type: functional
EC9706 [13] = test: Induction of apoptosis in human EC9706 cells assessed as increase in cleaved caspase-8 protein expression after 48 hrs by Western blot analysis; assay type: functional, cell-based
GES1 = test: Antiproliferative activity against human GES-1 cells after 72 hrs by MTT assay; assay type: cell-based; conditions: GES1, 72 h
ECa-109 cell line [14] = test: Induction of apoptosis in human EC109 cells assessed as increase in cleaved caspase-3 protein expression after 48 hrs by Western blot analysis; assay type: functional, cell-based
EC9706 [15] = test: Effect on Prxs-5 protein expression in human EC9706 cells at 2 to 8 uM after 48 hrs by Western blot analysis; assay type: functional, cell-based
ECa-109 cell line [16] = test: Induction of apoptosis in human EC109 cells assessed as necrotic cells at 8 uM after 48 hrs by Annexin V-FITC/propidium iodide staining based flow cytometry (reference value: 0.74 to 1.18%); assay type: functional
ECa-109 cell line [17] = test: Induction of apoptosis in human EC109 cells assessed as late apoptotic cells at 4 uM after 48 hrs by Annexin V-FITC/propidium iodide staining based flow cytometry (reference value: 0.2 to 1.74%); assay type: functional
EC9706 [18] = test: Induction of apoptosis in human EC9706 cells assessed as late apoptotic cells at 8 uM after 48 hrs by Annexin V-FITC/propidium iodide staining based flow cytometry (reference value: 1.29 to 1.99%); assay type: functional
EC9706 [19] = test: Induction of apoptosis in human EC9706 cells at 2 to 4 uM after 48 hrs in presence of anti-oxidant NAC by Annexin V-FITC/propidium iodide staining based flow cytometry; assay type: functional, cell-based
ECa-109 cell line [20] = test: Induction of apoptosis in human EC109 cells assessed as increase in cleaved PARP protein expression after 48 hrs by Western blot analysis; assay type: functional, cell-based
EC9706 [21] = test: Induction of apoptosis in human EC9706 cells assessed as decrease in Bid protein expression at 2 to 8 uM after 48 hrs by Western blot analysis; assay type: functional, cell-based
EC9706 [22] = test: Antiproliferative activity against human EC9706 cells after 48 hrs by MTT assay; assay type: functional, cell-based; conditions: EC9706, 48 h
EC9706 [23] = test: Induction of apoptosis in human EC9706 cells assessed as early apoptotic cells at 2 uM after 48 hrs by Annexin V-FITC/propidium iodide staining based flow cytometry (reference value: 0.68 to 1.58%); assay type: functional
MGC-803 = test: Antiproliferative activity against human MGC803 cells after 72 hrs by MTT assay; assay type: functional, cell-based; conditions: MGC-803, 72 h
ECa-109 cell line [24] = test: Induction of apoptosis in human EC109 cells assessed as early apoptotic cells at 4 uM after 48 hrs by Annexin V-FITC/propidium iodide staining based flow cytometry (reference value: 0.43 to 1.15%); assay type: functional
EC9706 [25] = test: Induction of apoptosis in human EC9706 cells assessed as increase in cleaved caspase-9 protein expression after 48 hrs by Western blot analysis; assay type: functional, cell-based
ECa-109 cell line [26] = test: Induction of apoptosis in human EC109 cells assessed as decrease in Bid protein expression at 2 to 8 uM after 48 hrs by Western blot analysis; assay type: functional, cell-based
ECa-109 cell line [27] = test: Induction of apoptosis in human EC109 cells assessed as increase in p53 protein expression after 48 hrs by Western blot analysis; assay type: functional, cell-based
Mus musculus [28] = test: Acute toxicity in C57BL/6 mouse assessed as change in physical phenotype at 2 g/kg, ig measured for 2 weeks; assay type: organism-based; conditions: in vivo, po, 2000 mg/kg, 336 h
ECa-109 cell line [29] = test: Induction of apoptosis in human EC109 cells assessed as live cells at 4 uM after 48 hrs in presence of caspase inhibitor Z-VAD-FMK by Annexin V-FITC/propidium iodide staining based flow cytometry (reference value: 96.2%); assay type: functional
ECa-109 cell line [30] = test: Induction of apoptosis in human EC109 cells assessed as increase in Bax protein expression after 48 hrs by Western blot analysis; assay type: functional, cell-based
ECa-109 cell line [31] = test: Induction of apoptosis in human EC109 cells assessed as early apoptotic cells at 4 uM after 48 hrs in presence of caspase inhibitor Z-VAD-FMK by Annexin V-FITC/propidium iodide staining based flow cytometry (reference value: 0.52%); assay type: functional
EC9706 [32] = test: Induction of apoptosis in human EC9706 cells assessed as necrotic cells at 8 uM after 48 hrs in presence of caspase inhibitor Z-VAD-FMK by Annexin V-FITC/propidium iodide staining based flow cytometry (reference value: 1.2%); assay type: functional
EC9706 [33] = test: Induction of apoptosis in human EC9706 cells assessed as late apoptotic cells at 4 uM after 48 hrs in presence of caspase inhibitor Z-VAD-FMK by Annexin V-FITC/propidium iodide staining based flow cytometry (reference value: 1.27%); assay type: functional
ECa-109 cell line [34] = test: Induction of apoptosis in human EC109 cells assessed as live cells at 2 uM after 48 hrs by Annexin V-FITC/propidium iodide staining based flow cytometry (reference value: 95.2 to 99%); assay type: functional

COc1ccc(/C=N/NC(=O)c2cccc(S(=O)(=O)N3CCOCC3)c2)c(O)c1
IC50 (ECa-109 cell line [1]): 11.3 µM | Activity (Mus musculus [2]): Non-Toxic | Activity (EC9706 [3]): Dose-dependent effect | fold change (FC) (ECa-109 cell line [4]): 1.4 | Activity (EC9706 [5]): 10.1% | Activity (EC9706 [6]): 31% | IC50 (PC-3): 5.8 µM | Activity (EC9706 [7]): 0.48 - 16.1% | Activity (ECa-109 cell line [8]): 42.4 - 43% | Activity (ECa-109 cell line [9]): Active | Activity (ECa-109 cell line [10]): 25.2 - 26.7% | Activity (EC9706 [11]): Active | Activity (ECa-109 cell line [12]): 27.2 - 63.6% | Activity (EC9706 [13]): Dose-dependent effect | IC50 (GES1): 14.4 µM | Activity (ECa-109 cell line [14]): Dose-dependent effect | Activity (EC9706 [15]): Active | Activity (ECa-109 cell line [16]): 2.23 - 13% | Activity (ECa-109 cell line [17]): 17.4 - 31.1% | Activity (EC9706 [18]): 25 - 33.1% | Activity (EC9706 [19]): inactive | Activity (ECa-109 cell line [20]): Dose-dependent effect | Activity (EC9706 [21]): Active | IC50 (EC9706 [22]): 7.51 µM | Activity (EC9706 [23]): 1.56% | IC50 (MGC-803): 2.07 µM | Activity (ECa-109 cell line [24]): 17.8 - 22.4% | Activity (EC9706 [25]): Dose-dependent effect | Activity (ECa-109 cell line [26]): Active | Activity (ECa-109 cell line [27]): Dose-dependent effect | Activity (Mus musculus [28]): Non-Toxic | Activity (ECa-109 cell line [29]): 49% | Activity (ECa-109 cell line [30]): Dose-dependent effect | Activity (ECa-109 cell line [31]): 9.34% | Activity (EC9706 [32]): 17% | Activity (EC9706 [33]): 20.7% | Activity (ECa-109 cell line [34]): 79.1%
